Results as given in patent US11331327B2, “Antibacterial use of halogenated salicylanilides” (UNION therapeutics A/S, priority 2014, dated 2022).
In brackets after ≈: the same amount, converted by molar mass.

System: S. aureus clinical isolates and S. aureus ATCC 29213
Experiment: MIC assay according to CLSI criteria, Example 2, S. aureus strains
Format: cell-based, Staphylococcus aureus
Conditions: Staphylococcus aureus
Procedure: Strains were conserved in Luria Bertani (LB) Broth (S. aureus) or Brain Heart Infusion (BHI) (S. pyogenes) supplemented with glycerol 15% (v/v) at −80° C., and reactivated by isolation on LB (S. aureus) or BHI (S. pyogenes) agar plates. Strains were cultivated in Mueller Hinton (MH) Broth-cation adjusted (S. aureus) or BHI (S. pyogenes). All strains were cultivated aerobically (microaerobically for S. pyogenes strains) at 37° C.
Bacterial cultures were stopped in their exponential growth phase and plates were inoculated with the approximate concentration of 5×10^5 cells per well. Plates were incubated at 37° C. for 18 hours (S. aureus) or 24 hours (S. pyogenes).

For `C=C[C@]1(C)C[C@@H](OC(=O)CS[C@@H]2C[C@H]3CC[C@@H](C2)N3C)[C@]2(C)[C@H](C)CC[C@]3(CCC(=O)[C@H]32)[C@@H](C)[C@@H]1O` [Retapamulin], the MIC (ATCC29213, strain 9-1862936) was 0.03 µg/mL (≈ 0.0579 µM), the MIC (ATCC29213, strain 9-2625962) was 0.03 µg/mL (≈ 0.0579 µM) and the MIC (ATCC29213, strain 9-2642158) was 0.06 µg/mL (≈ 0.116 µM). For the same compound, the MIC (ATCC29213, strain 9-2955245) was 0.06 µg/mL (≈ 0.116 µM), the MIC (ATCC29213, strain 9-26422166) was 0.03 µg/mL (≈ 0.0579 µM) and the MIC (ATCC29213, strain 000040C) was 0.03 µg/mL (≈ 0.0579 µM). For the same compound, the MIC (ATCC29213, strain 000041C) was 0.03 µg/mL (≈ 0.0579 µM), the MIC (ATCC29213, strain 000274T) was 0.06 µg/mL (≈ 0.116 µM) and the MIC (ATCC29213, strain 114660U) was 0.06 µg/mL (≈ 0.116 µM). It also gave an MIC (ATCC29213, strain 115015T) of 0.06 µg/mL (≈ 0.116 µM), an MIC (ATCC29213, strain 115242C) of 0.03 µg/mL (≈ 0.0579 µM) and an MIC (ATCC29213, strain 115263C) of 0.03 µg/mL (≈ 0.0579 µM). The MIC (ATCC29213, strain 115268C) was 0.03 µg/mL (≈ 0.0579 µM), the MIC (ATCC29213, strain 115273C) was 0.03 µg/mL (≈ 0.0579 µM) and the MIC (ATCC29213, strain 115295C) was 0.03 µg/mL (≈ 0.0579 µM). The MIC (ATCC29213, strain 115303C) was 0.03 µg/mL (≈ 0.0579 µM), the MIC (ATCC29213, strain 115370U) was 0.06 µg/mL (≈ 0.116 µM) and the MIC (ATCC29213, strain 115427C) was 0.03 µg/mL (≈ 0.0579 µM). It also gave an MIC (ATCC29213, strain 115445C) of 0.03 µg/mL (≈ 0.0579 µM), an MIC (ATCC29213, strain 115561C) of 0.03 µg/mL (≈ 0.0579 µM) and an MIC (ATCC29213, strain 115584D) of 0.06 µg/mL (≈ 0.116 µM). For the same compound, the MIC (ATCC29213, strain 115628T) was 0.03 µg/mL (≈ 0.0579 µM), the MIC (ATCC29213, strain 115690C) was 0.25 µg/mL (≈ 0.483 µM) and the MIC (ATCC29213, strain 115691T) was 0.03 µg/mL (≈ 0.0579 µM). It also gave an MIC (ATCC29213, strain 115740E) of 0.06 µg/mL (≈ 0.116 µM), an MIC (ATCC29213, strain 115810E) of 0.06 µg/mL (≈ 0.116 µM) and an MIC (ATCC29213, strain 115903T) of 0.03 µg/mL (≈ 0.0579 µM). For the same compound, the MIC (ATCC29213, strain 116122T) was 0.03 µg/mL (≈ 0.0579 µM), the MIC (ATCC29213, strain ATCC 29213) was 0.03 µg/mL (≈ 0.0579 µM) and the MIC (ATCC29213, strain E5-1029252) was 0.03 µg/mL (≈ 0.0579 µM). The MIC (ATCC29213, strain E5-1029558) was 0.03 µg/mL (≈ 0.0579 µM), the MIC (ATCC29213, strain E5-1030440) was 0.06 µg/mL (≈ 0.116 µM) and the MIC (ATCC29213, strain E5-1030469) was 0.03 µg/mL (≈ 0.0579 µM). For the same compound, the MIC (ATCC29213, strain E5-1030472) was 0.06 µg/mL (≈ 0.116 µM), the MIC (ATCC29213, strain E5-1030482) was 0.02 µg/mL (≈ 0.0386 µM) and the MIC (ATCC29213, strain E5-1033076 (first line, r202)) was 0.03 µg/mL (≈ 0.0579 µM). The MIC (ATCC29213, strain E5-1033076 (second line, r203)) was 0.03 µg/mL (≈ 0.0579 µM), the MIC (ATCC29213, strain E5-1033088) was 0.03 µg/mL (≈ 0.0579 µM) and the MIC (ATCC29213, strain E5-1033091) was 0.02 µg/mL (≈ 0.0386 µM). For the same compound, the MIC (ATCC29213, strain E5-1035277) was 0.03 µg/mL (≈ 0.0579 µM), the MIC (ATCC29213, strain E5-1035284) was 0.03 µg/mL (≈ 0.0579 µM) and the MIC (ATCC29213, strain E5-1035775) was 0.06 µg/mL (≈ 0.116 µM). For the same compound, the MIC (ATCC29213, strain E5-1035779) was 0.03 µg/mL (≈ 0.0579 µM), the MIC (ATCC29213, strain E5-1037958) was 0.06 µg/mL (≈ 0.116 µM) and the MIC (ATCC29213, strain E5-1037971) was 0.03 µg/mL (≈ 0.0579 µM). For the same compound, the MIC (ATCC29213, strain E5-1038279) was 0.03 µg/mL (≈ 0.0579 µM), the MIC (ATCC29213, strain E5-1038286) was 0.06 µg/mL (≈ 0.116 µM) and the MIC (ATCC29213, strain E5-1038294) was 0.03 µg/mL (≈ 0.0579 µM). For the same compound, the MIC (ATCC29213, strain E5-1039684) was 0.06 µg/mL (≈ 0.116 µM), the MIC (ATCC29213, strain E5-1039697) was 0.06 µg/mL (≈ 0.116 µM) and the MIC (ATCC29213, strain E5-1041977) was 0.03 µg/mL (≈ 0.0579 µM). The MIC (ATCC29213, strain E5-1041979) was 0.03 µg/mL (≈ 0.0579 µM), the MIC (ATCC29213, strain E5-1041980) was 0.03 µg/mL (≈ 0.0579 µM) and the MIC (ATCC29213, strain E5-1041987) was 0.03 µg/mL (≈ 0.0579 µM). It also gave an MIC (ATCC29213, strain E5-1043184) of 0.03 µg/mL (≈ 0.0579 µM), an MIC (ATCC29213, strain E5-1043668) of 0.06 µg/mL (≈ 0.116 µM) and an MIC (ATCC29213, strain E5-1045179) of 0.06 µg/mL (≈ 0.116 µM). The MIC (ATCC29213, strain E5-1046019) was 0.03 µg/mL (≈ 0.0579 µM), the MIC (ATCC29213, strain E5-1046020) was 0.06 µg/mL (≈ 0.116 µM) and the MIC (ATCC29213, strain E5-1046039) was 0.06 µg/mL (≈ 0.116 µM). For the same compound, the MIC (ATCC29213, strain E5-1046070) was 0.03 µg/mL (≈ 0.0579 µM), the MIC (ATCC29213, strain E5-1046074) was 0.06 µg/mL (≈ 0.116 µM) and the MIC (ATCC29213, strain E5-1046085) was 0.06 µg/mL (≈ 0.116 µM). The MIC (ATCC29213, strain E5-1046096) was 0.06 µg/mL (≈ 0.116 µM), the MIC (ATCC29213, strain E5-1046296) was 0.03 µg/mL (≈ 0.0579 µM) and the MIC (ATCC29213, strain E5-1046297) was 0.06 µg/mL (≈ 0.116 µM). The MIC (ATCC29213, strain E5-1046298) was 0.03 µg/mL (≈ 0.0579 µM), the MIC (ATCC29213, strain E5-1046723) was 0.06 µg/mL (≈ 0.116 µM) and the MIC (ATCC29213, strain E5-1047585) was 0.03 µg/mL (≈ 0.0579 µM). The MIC (ATCC29213, strain E5-1047606) was 0.03 µg/mL (≈ 0.0579 µM), the MIC (ATCC29213, strain E5-1047924) was 0.03 µg/mL (≈ 0.0579 µM) and the MIC (ATCC29213, strain E5-1048204) was 0.03 µg/mL (≈ 0.0579 µM). The MIC (ATCC29213, strain E5-1048428) was 0.06 µg/mL (≈ 0.116 µM), the MIC (ATCC29213, strain E5-1048654) was 0.06 µg/mL (≈ 0.116 µM) and the MIC (ATCC29213, strain E5-1048670) was 0.06 µg/mL (≈ 0.116 µM). For the same compound, the MIC (ATCC29213, strain EEFIC 01) was 0.03 µg/mL (≈ 0.0579 µM), the MIC (ATCC29213, strain EEFIC 02) was 0.03 µg/mL (≈ 0.0579 µM) and the MIC (ATCC29213, strain K000772) was 0.06 µg/mL (≈ 0.116 µM). It also gave an MIC (ATCC29213, strain K000796) of 0.03 µg/mL (≈ 0.0579 µM), an MIC (ATCC29213, strain K000863) of 0.03 µg/mL (≈ 0.0579 µM) and an MIC (ATCC29213, strain K000864) of 0.03 µg/mL (≈ 0.0579 µM). For the same compound, the MIC (ATCC29213, strain K000866) was 0.03 µg/mL (≈ 0.0579 µM), the MIC (ATCC29213, strain K115498) was 0.03 µg/mL (≈ 0.0579 µM) and the MIC (ATCC29213, strain K115688) was 0.03 µg/mL (≈ 0.0579 µM). For the same compound, the MIC (ATCC29213, strain K115689) was 0.03 µg/mL (≈ 0.0579 µM), the MIC (ATCC29213, strain R000019) was 0.06 µg/mL (≈ 0.116 µM) and the MIC (ATCC29213, strain R000020) was 0.03 µg/mL (≈ 0.0579 µM). For the same compound, the MIC (ATCC29213, strain R000024) was 0.06 µg/mL (≈ 0.116 µM), the MIC (ATCC29213, strain U115579) was 0.06 µg/mL (≈ 0.116 µM) and the MIC (ATCC 29213 / MRSA, strain MRSA 01) was 0.06 µg/mL (≈ 0.116 µM). For the same compound, the MIC (ATCC 29213 / MRSA, strain MRSA 02) was 0.06 µg/mL (≈ 0.116 µM), the MIC (ATCC 29213 / MRSA, strain MRSA 03) was 0.03 µg/mL (≈ 0.0579 µM) and the MIC (ATCC 29213 / MRSA, strain MRSA 04) was 0.06 µg/mL (≈ 0.116 µM). For the same compound, the MIC (ATCC 29213 / MRSA, strain MRSA 05) was 0.03 µg/mL (≈ 0.0579 µM), the MIC (ATCC 29213 / MRSA, strain MRSA 06) was 0.03 µg/mL (≈ 0.0579 µM) and the MIC (ATCC 29213 / MRSA, strain MRSA 07) was 0.06 µg/mL (≈ 0.116 µM). It also gave an MIC (ATCC 29213 / MRSA, strain MRSA 08) of 0.03 µg/mL (≈ 0.0579 µM), an MIC (ATCC 29213 / MRSA, strain MRSA 09) of 0.06 µg/mL (≈ 0.116 µM) and an MIC (ATCC 29213 / MRSA, strain MRSA 10) of 0.06 µg/mL (≈ 0.116 µM). It also gave an MIC (ATCC 29213 / MRSA, strain MRSA 11) of 0.06 µg/mL (≈ 0.116 µM), an MIC (ATCC 29213 / MRSA, strain MRSA 12) of 0.03 µg/mL (≈ 0.0579 µM) and an MIC (ATCC 29213 / MRSA, strain MRSA 13) of 0.06 µg/mL (≈ 0.116 µM). For the same compound, the MIC (ATCC 29213 / MRSA, strain MRSA 14) was 0.03 µg/mL (≈ 0.0579 µM).
